Assay results as given in article PMC7293010, “DXO/Rai1 enzymes remove 5′-end FAD and dephospho-CoA caps on RNAs” (Nucleic Acids Research, 2020).

Assays:
[1] = target: T1, SpRai1 (Schizosaccharomyces pombe, UniProt O13836); experiment: X-ray crystal structure, crystal soaked […] h in […] ligand; assay type: binding; details: 1.9 Å; two magnesium ions observed; active site
T1 construct: gene din1; full-length, pET28a (for crystallization), E. coli BL21 (DE3) Rosetta, Ni-NTA and gel filtration
T1 sequence (O13836 1-352): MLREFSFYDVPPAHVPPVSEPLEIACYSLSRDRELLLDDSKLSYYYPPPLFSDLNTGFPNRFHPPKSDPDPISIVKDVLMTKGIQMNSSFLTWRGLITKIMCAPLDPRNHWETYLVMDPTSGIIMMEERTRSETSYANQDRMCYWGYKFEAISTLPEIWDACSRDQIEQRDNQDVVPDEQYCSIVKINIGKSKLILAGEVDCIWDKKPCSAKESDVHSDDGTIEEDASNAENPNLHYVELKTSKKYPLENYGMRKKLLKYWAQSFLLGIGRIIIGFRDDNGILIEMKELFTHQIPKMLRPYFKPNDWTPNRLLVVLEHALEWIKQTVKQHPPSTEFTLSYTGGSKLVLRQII

[2] = target: T2, mDXO (Mus musculus, UniProt O70348, E192S/E234Q/E253Q); experiment: X-ray crystal structure, crystal soaked in […] CaCl2 for […] h, then in […] ligand for […] h; assay type: binding; details: 1.6 Å; active site; pH 6.8, 20°C
T2 construct: gene Dxo; full-length, His tag, pET28a, E. coli BL21 (DE3) Rosetta, Ni-NTA and gel filtration; residues 1-26 with His tag and 385-397 not seen in density
T2 sequence (O70348 1-397 E192S/E234Q/E253Q): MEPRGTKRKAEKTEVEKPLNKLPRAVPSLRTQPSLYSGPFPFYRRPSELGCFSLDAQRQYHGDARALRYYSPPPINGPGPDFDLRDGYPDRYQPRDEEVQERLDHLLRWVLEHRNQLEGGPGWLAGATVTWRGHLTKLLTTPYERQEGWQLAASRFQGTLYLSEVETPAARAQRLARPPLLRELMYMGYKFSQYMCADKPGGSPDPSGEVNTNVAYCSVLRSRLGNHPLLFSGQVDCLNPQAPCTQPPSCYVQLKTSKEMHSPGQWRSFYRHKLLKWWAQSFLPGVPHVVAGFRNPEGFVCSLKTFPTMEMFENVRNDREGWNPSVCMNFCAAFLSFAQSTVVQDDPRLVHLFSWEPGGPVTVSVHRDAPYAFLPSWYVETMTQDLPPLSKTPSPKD

SMILES	X-ray crystal structure, crystal soaked 1 h in 10 mM ligand [1]	X-ray crystal structure, crystal soaked in 20 mM CaCl2 for 1 h, then in 10 mM li [2]
Cc1cc2nc3c(=O)[nH]c(=O)nc-3n(C[C@H](O)[C@H](O)[C@H](O)COP(=O)(O)OP(=O)(O)OC[C@H]3O[C@@H](n4cnc5c(N)ncnc54)[C@H](O)[C@@H]3OP(=O)(O)O)c2cc1C [3′-FADP]	good-quality electron density for FADP in complex with wild-type SpRai1	
CC(C)(COP(=O)(O)OP(=O)(O)OC[C@H]1O[C@@H](n2cnc3c(N)ncnc32)[C@H](O)[C@@H]1OP(=O)(O)O)[C@@H](O)C(=O)NCCC(=O)NCCS [CoA]		crystal structure of the E192S/E234Q/E253Q mutant of mDXO in complex with CoA
